Patent publication US12312359B2 (Vitae Pharmaceuticals, LLC, priority 2016, dated 2025)

Key:
[1] = Concentration in water to achieve pH=7; format: physicochemical
[2] = from 5 to 95% RH
Protocol: Moisture sorption/desorption data were collected on a VTI SGA-100 Vapor Sorption Analyzer. NaCl and PVP were used as calibration standards. Samples were not dried prior to analysis. Sorption and desorption data were collected over a range from 5% to 95% RH at 10% RH increments under a nitrogen purge. The equilibrium criterion used for analysis was less than 0.0100% weight change in 5 minutes with a maximum equilibration time of 3 hours. Data were not corrected for the initial moisture content of the samples.

[3] = Physical stability analysis of sesquifumaric acid salt forms (drying, heating); format: physicochemical

SMILES: CCN(C(=O)c1cc(F)ccc1Oc1cncnc1N1CC2(CCN(CC3CCC(NS(=O)(=O)CC)CC3)CC2)C1)C(C)C.CCN(C(=O)c1cc(F)ccc1Oc1cncnc1N1CC2(CCN(CC3CCC(NS(=O)(=O)CC)CC3)CC2)C1)C(C)C.O=C(O)/C=C/C(=O)O.O=C(O)/C=C/C(=O)O.O=C(O)/C=C/C(=O)O (centres unmarked) [Example 255, N-Ethyl-2-((4-(7-(((1r,4r)-4-(ethylsulfonamido)cyclohexyl)methyl)-2,7-diazaspiro[3.5]nonan-2-yl)pyrimidin-5-yl)oxy)-5-fluoro-N-isopropylbenzamide Sesquifumaric Acid Salt]
- Concentration in water to achieve pH=7 [1]: 224.7 mg/mL

SMILES: CCN(C(=O)c1cc(F)ccc1Oc1cncnc1N1CC2(CCN(CC3CCC(NS(=O)(=O)CC)CC3)CC2)C1)C(C)C.CS(=O)(=O)O.CS(=O)(=O)O (centres unmarked) [Example 256, N-Ethyl-2-((4-(7-(((1r,4r)-4-(ethylsulfonamido)cyclohexyl)methyl)-2,7-diazaspiro[3.5]nonan-2-yl)pyrimidin-5-yl)oxy)-5-fluoro-N-isopropylbenzamide Bis-Methanesulfonic Acid Salt]
- Concentration in water to achieve pH=7 [1]: 261 mg/mL

SMILES: CCN(C(=O)c1cc(F)ccc1Oc1cncnc1N1CC2(CCN(CC3CCC(NS(=O)(=O)CC)CC3)CC2)C1)C(C)C (centres unmarked) [Example 254, N-Ethyl-2-((4-(7-(((1r,4r)-4-(ethylsulfonamido)cyclohexyl)methyl)-2,7-diazaspiro[3.5]nonan-2-yl)pyrimidin-5-yl)oxy)-5-fluoro-N-isopropylbenzamide]
- Concentration in water to achieve pH=7 [1]: 7.6 mg/mL

SMILES: CC(C)N(C(=O)c1cc(F)ccc1Oc1cncnc1N1CC2(CCN(CC3CCC(NS(C)(=O)=O)CC3)CC2)C1)C(C)C.CC(C)N(C(=O)c1cc(F)ccc1Oc1cncnc1N1CC2(CCN(CC3CCC(NS(C)(=O)=O)CC3)CC2)C1)C(C)C.O.O.O=C(O)/C=C/C(=O)O.O=C(O)/C=C/C(=O)O.O=C(O)/C=C/C(=O)O (centres unmarked) [Form A, 5-fluoro-N,N-diisopropyl-2-((4-(7-(((1r,4r)-4-(methylsulfonamido)cyclohexyl)methyl)-2,7-diazaspiro[3.5]nonan-2-yl)pyrimidin-5-yl)oxy)benzamide sesquifumaric acid salt monohydrate]
- DVS weight gain [2]: 0.92%
- Observation (weight change) ([3]; 70° C. vacuum 3 days): no weight change
- Result (solid form after physical stability stress) ([3]; 70° C. vacuum 3 days): Form A + peaks
- Result (solid form after physical stability stress) ([3]; 95° C., under N2, 2 days): Form A
- Observation (LOD) ([3]; 105° C. 3 days): 20% LOD
- Result (solid form after physical stability stress) ([3]; 105° C. 3 days): Form A
- Observation (weight change) ([3]; ambient vacuum 3 days): no weight change
- Result (solid form after physical stability stress) ([3]; ambient vacuum 3 days): Form A
- Form change in variable temperature (VT)-XRPD ([3]; heating, XRPD pattern at 165° C.): No form change observed
- Changes upon vacuum drying or heating ([3]; vacuum drying or heating): No changes

SMILES: CCN(C(=O)c1cc(F)ccc1Oc1cncnc1N1CC2(CCN(CC3CCC(NS(=O)(=O)CC)CC3)CC2)C1)C(C)C.Cl.Cl (centres unmarked) [Example 257, N-Ethyl-2-((4-(7-(((1r,4r)-4-(ethylsulfonamido)cyclohexyl)methyl)-2,7-diazaspiro[3.5]nonan-2-yl)pyrimidin-5-yl)oxy)-5-fluoro-N-isopropylbenzamide Bis-Hydrochloric Acid Salt]
- Concentration in water to achieve pH=7 [1]: 317.6 mg/mL
